25 compounds from ChEMBL document CHEMBL3044651, “Synthesis, fungicidal activity, and structure-activity relationship of spiro-compounds containing macrolactam (macrolactone) and thiadiazoline rings” (J Agric Food Chem, 2010) can be followed below.

For orientation: EC50 means the concentration needed to bring the measured effect to its halfway point.

Common to all, as to format: functional, organism-based
In one experiment the test system is Rhizoctonia solani. The experiment in a line: Antifungal activity against Rhizoctonia solani Kuhn by mycelium growth rate test.
Another experiment deals with Phomopsis asparagi. Briefly: Antifungal activity against Phomopsis asparagi by mycelium growth rate test.
The test system of a further experiment is Sclerotinia sclerotiorum. The experiment in a line: Antifungal activity against Sclerotinia sclerotiorum by mycelium growth rate test.
The next experiment concerns Pyricularia oryzae. Briefly: Antifungal activity against Magnaporthe oryzae by mycelium growth rate test.
A further experiment relates to Botrytis cinerea. The experiment in a line: Antifungal activity against Botryotinia fuckeliana by mycelium growth rate test.

Values after ≈ are worked out from the molar mass of the structure shown.

As to `O=C1CCCCCCCCCCC2(CCCN1)N=N/C(=N/c1ccccc1)S2` (stereo not given), the EC50 in the experiment on Rhizoctonia solani was 42.1 µg/mL (≈ 105 µM); with Phomopsis asparagi, 14.2 µg/mL (≈ 35.4 µM); in the experiment on Sclerotinia sclerotiorum it was 9.92 µg/mL (≈ 24.8 µM); in the experiment on Pyricularia oryzae, 41.5 µg/mL (≈ 104 µM); in the experiment with Botrytis cinerea, 5.01 µg/mL (≈ 12.5 µM).
In the same order, the values of `Cc1ccccc1/N=C1/N=NC2(CCCCCCCCCCC(=O)NCCC2)S1` (stereo not given) are 125 µg/mL (≈ 301 µM), 73.8 µg/mL (≈ 178 µM), 375 µg/mL (≈ 905 µM), 78.4 µg/mL (≈ 189 µM) and 4.21 µg/mL (≈ 10.2 µM).
The like results for `Cc1cccc(/N=C2/N=NC3(CCCCCCCCCCC(=O)NCCC3)S2)c1` (stereo not given) were, in that order, 30.7 µg/mL (≈ 74.1 µM), 9.67 µg/mL (≈ 23.3 µM), 4.42 µg/mL (≈ 10.7 µM), 63.2 µg/mL (≈ 152 µM) and 6.42 µg/mL (≈ 15.5 µM).
In the same order, the values of `Cc1ccc(/N=C2/N=NC3(CCCCCCCCCCC(=O)NCCC3)S2)cc1` (stereo not given) are 71.8 µg/mL (≈ 173 µM), 14.5 µg/mL (≈ 35 µM), 34.1 µg/mL (≈ 82.2 µM), 139 µg/mL (≈ 335 µM) and 25.1 µg/mL (≈ 60.5 µM).
In the case of `O=C1CCCCCCCCCCC2(CCCN1)N=N/C(=N/c1ccccc1Cl)S2` (stereo not given), the EC50 stood at 31.8 µg/mL (≈ 73.1 µM) in the experiment with Rhizoctonia solani; 24.5 µg/mL (≈ 56.3 µM) in the experiment with Phomopsis asparagi; 242 µg/mL (≈ 555 µM) in the experiment on Sclerotinia sclerotiorum; 41.5 µg/mL (≈ 95.4 µM) in the experiment with Pyricularia oryzae; 14.9 µg/mL (≈ 34.2 µM) in the experiment with Botrytis cinerea.
The like results for `O=C1CCCCCCCCCCC2(CCCN1)N=N/C(=N/c1ccc(Cl)cc1)S2` (stereo not given) were, in that order, 39.5 µg/mL (≈ 90.8 µM), 102 µg/mL (≈ 234 µM), 48.2 µg/mL (≈ 111 µM), 0.054 µg/mL (≈ 0.124 µM) and 18.7 µg/mL (≈ 42.9 µM).
In the same order, the values of `O=C1CCCCCCCCCCC2(CCCN1)N=N/C(=N/c1ccccc1Br)S2` (stereo not given) are 56.1 µg/mL (≈ 117 µM), 60.3 µg/mL (≈ 126 µM), 533 µg/mL (≈ 1110 µM), 57.6 µg/mL (≈ 120 µM) and 19.9 µg/mL (≈ 41.4 µM).
For `COc1ccccc1/N=C1/N=NC2(CCCCCCCCCCC(=O)NCCC2)S1` (stereo not given), the EC50 came to 37.9 µg/mL (≈ 88 µM) in the experiment with Rhizoctonia solani; 517 µg/mL (≈ 1200 µM) in the experiment on Phomopsis asparagi; 21.1 µg/mL (≈ 49 µM) with Sclerotinia sclerotiorum; 398 µg/mL (≈ 924 µM) in the experiment on Pyricularia oryzae; 21.8 µg/mL (≈ 50.7 µM) with Botrytis cinerea.
For the compound `COc1ccc(/N=C2/N=NC3(CCCCCCCCCCC(=O)NCCC3)S2)cc1` (stereo not given), the EC50 worked out at 93 µg/mL (≈ 216 µM) in the experiment with Rhizoctonia solani; 20.6 µg/mL (≈ 47.7 µM) with Phomopsis asparagi; 87.2 µg/mL (≈ 203 µM) with Sclerotinia sclerotiorum; 57.8 µg/mL (≈ 134 µM) in the experiment with Pyricularia oryzae; 6.47 µg/mL (≈ 15 µM) with Botrytis cinerea.
`Cc1cccc(/N=C2/N=NC3(CCCCCCCCCCC(=O)NCCC3)S2)c1C` (stereo not given): the EC50 was determined as 22.4 µg/mL (≈ 52.2 µM) in the experiment with Rhizoctonia solani; 14.8 µg/mL (≈ 34.6 µM) in the experiment on Phomopsis asparagi; 36.5 µg/mL (≈ 85.2 µM) in the experiment on Sclerotinia sclerotiorum; 199 µg/mL (≈ 465 µM) with Pyricularia oryzae; 22.6 µg/mL (≈ 52.7 µM) in the experiment with Botrytis cinerea.
The like results for `Cc1ccc(/N=C2/N=NC3(CCCCCCCCCCC(=O)NCCC3)S2)c(C)c1` (stereo not given) were, in that order, 26.8 µg/mL (≈ 62.4 µM), 5.26 µg/mL (≈ 12.3 µM), 55.7 µg/mL (≈ 130 µM), 30.9 µg/mL (≈ 72.1 µM) and 9.63 µg/mL (≈ 22.5 µM).
In the same order, the values of `Cc1ccc(C)c(/N=C2/N=NC3(CCCCCCCCCCC(=O)NCCC3)S2)c1` (stereo not given) are 5.62 µg/mL (≈ 13.1 µM), 16.4 µg/mL (≈ 38.3 µM), 34.3 µg/mL (≈ 80 µM), 86.6 µg/mL (≈ 202 µM) and 18.6 µg/mL (≈ 43.3 µM).
In the same order, the values of `O=C1CCCCCCCCCCC2(CCCN1)N=N/C(=N/c1ccc(Cl)c(Cl)c1)S2` (stereo not given) are 36.8 µg/mL (≈ 78.4 µM), 9.02 µg/mL (≈ 19.2 µM), 15 µg/mL (≈ 32 µM), 0.72 µg/mL (≈ 1.53 µM) and 34.2 µg/mL (≈ 72.9 µM).
For `O=C1CCCCCCCCCCC2(CCCN1)N=N/C(=N/c1cc(Cl)ccc1Cl)S2` (stereo not given), the EC50 was found to be 41.8 µg/mL (≈ 89 µM) with Rhizoctonia solani; 222 µg/mL (≈ 472 µM) in the experiment on Phomopsis asparagi; 109 µg/mL (≈ 233 µM) with Sclerotinia sclerotiorum; 1.11 µg/mL (≈ 2.36 µM) in the experiment on Pyricularia oryzae; 29.6 µg/mL (≈ 63 µM) in the experiment on Botrytis cinerea.
In the same order, the values of `O=C1CCCCCCCCCCC2(CCCN1)N=N/C(=N/c1cccc3ccccc13)S2` (stereo not given) are 17.8 µg/mL (≈ 39.5 µM), 46.1 µg/mL (≈ 102 µM), 767 µg/mL (≈ 1700 µM), 196 µg/mL (≈ 434 µM) and 15.7 µg/mL (≈ 34.9 µM).
In the same order, the values of `O=C1CCCCCCCCCCC2(CCCN1)N=N/C(=N/Cc1ccccc1)S2` (stereo not given) are 23.5 µg/mL (≈ 56.7 µM), 21.3 µg/mL (≈ 51.4 µM), 8.32 µg/mL (≈ 20.1 µM), 117 µg/mL (≈ 282 µM) and 14.4 µg/mL (≈ 34.8 µM).
In the same order, the values of `O=C1CCCCCCCCCCC2(CCCO1)N=N/C(=N/c1ccccc1Cl)S2` (stereo not given) are 159 µg/mL (≈ 365 µM), 116 µg/mL (≈ 267 µM), 169 µg/mL (≈ 388 µM), 211 µg/mL (≈ 485 µM) and 43.8 µg/mL (≈ 100 µM).
In the case of `O=C1CCCCCCCCCCC2(CCCO1)N=N/C(=N/c1ccc(Cl)cc1)S2` (stereo not given), the EC50 in the experiment on Rhizoctonia solani turned out to be 126 µg/mL (≈ 290 µM); in the experiment on Phomopsis asparagi, 42.5 µg/mL (≈ 97.4 µM); in the experiment with Sclerotinia sclerotiorum, 59.9 µg/mL (≈ 137 µM); in the experiment on Pyricularia oryzae, 338 µg/mL (≈ 776 µM); in the experiment on Botrytis cinerea, 49.9 µg/mL (≈ 115 µM).
In the same order, the values of `O=C1CCCCCCCCCCC2(CCCO1)N=N/C(=N/c1ccccc1Br)S2` (stereo not given) are 208 µg/mL (≈ 432 µM), 53.5 µg/mL (≈ 111 µM), 205 µg/mL (≈ 426 µM), 246 µg/mL (≈ 512 µM) and 36.4 µg/mL (≈ 75.8 µM).
For `O=C1CCCCCCCCCCC2(CCCO1)N=N/C(=N/c1ccc(Br)cc1)S2` (stereo not given), the EC50 in the experiment with Rhizoctonia solani was found to be 17.1 µg/mL (≈ 35.6 µM); with Phomopsis asparagi, 29.2 µg/mL (≈ 60.8 µM); in the experiment with Sclerotinia sclerotiorum it was 38.3 µg/mL (≈ 79.7 µM); in the experiment with Pyricularia oryzae it was 338 µg/mL (≈ 704 µM); with Botrytis cinerea it was 49.9 µg/mL (≈ 104 µM).
In the same order, the values of `Cc1ccc(C)c(/N=C2/N=NC3(CCCCCCCCCCC(=O)OCCC3)S2)c1` (stereo not given) are 422 µg/mL (≈ 982 µM), 208 µg/mL (≈ 485 µM), 163 µg/mL (≈ 379 µM), 3120 µg/mL (≈ 7270 µM) and 126 µg/mL (≈ 294 µM).
Take `N#Cc1c(Cl)c(Cl)c(Cl)c(C#N)c1Cl` [CHLOROTHALONIL]: the EC50 was 4.35 µg/mL (≈ 16.4 µM) in the experiment on Phomopsis asparagi and 0.41 µg/mL (≈ 1.54 µM) with Sclerotinia sclerotiorum.
`CC(C)OC(=O)C(C(=O)OC(C)C)=C1SCCS1` [ISOPROTHIOLANE] returned an EC50 with Pyricularia oryzae of 7.19 µg/mL (≈ 24.8 µM).
In the experiment with Botrytis cinerea, `Cc1cc(C)nc(Nc2ccccc2)n1` [PYRIMETHANIL] gave a half-maximal effective concentration (EC50) of 0.14 µg/mL (≈ 0.703 µM).
With `CN(C)C(=S)SSC(=S)N(C)C` [THIRAM], the EC50 with Rhizoctonia solani came to 0.9 µg/mL (≈ 3.74 µM).
